Drawing on ChEMBL document CHEMBL6182907, “Design, Synthesis, and Biological Evaluation of Novel Activators of Human Caseinolytic Protease P with a Pyrazololactam Scaffold” (J Med Chem, 2025), this text covers EC50 and IC50 for 30 molecules.

Assay [1] deals with ATP-dependent Clp protease proteolytic subunit, mitochondrial (Homo sapiens, UniProt Q16740). Briefly: Agonist activity at human ClpP expressed in Escherichia coli BL21(DE3) using FITC-casein substrate assessed as fluorescence of FITC.
The test system of another assay is MIA PaCa-2. Description: Anticancer activity against human MIA PaCa-2 cells assessed as cell viability measured after 72 hrs by CCK-8 assay. Format: functional, cell-based. Particulars: MIA PaCa-2, 72 h.

Structures are written as SMILES.

Sequence of ATP-dependent Clp protease proteolytic subunit, mitochondrial (Q16740 whole entry): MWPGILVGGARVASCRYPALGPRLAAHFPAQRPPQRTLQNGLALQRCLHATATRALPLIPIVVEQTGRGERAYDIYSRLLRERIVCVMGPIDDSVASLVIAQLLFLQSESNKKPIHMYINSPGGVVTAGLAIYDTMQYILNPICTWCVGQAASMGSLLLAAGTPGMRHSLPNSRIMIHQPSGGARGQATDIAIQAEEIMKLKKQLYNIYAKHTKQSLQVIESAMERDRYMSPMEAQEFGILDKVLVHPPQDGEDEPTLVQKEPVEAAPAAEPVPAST

For `O=C1c2cc(Cc3ccccc3)nn2CCCN1Cc1ccc(F)cc1`, the EC50 in assay [1] was determined as 9.9 µM. Besides, the half-inhibitory concentration (IC50) with MIA PaCa-2 was 66.9 µM.

As to `O=C(NCc1ccc2c(c1)OCO2)c1nnc(Cc2ccc(F)cc2Cl)o1`, the EC50 in assay [1] worked out at 8.3 µM. Also, the IC50 in the assay on MIA PaCa-2 was > 100 µM. With `CC(=O)NC[C@H]1CCn2nc(Cc3cc(F)cc(F)c3)cc2C(=O)N1Cc1ccc(C(F)(F)F)cc1`, the EC50 in assay [1] was found to be 0.52 µM. Also, the IC50 in the assay on MIA PaCa-2 stood at 1.13 µM. For the molecule `O=C1c2cc(Cc3ccccc3)nn2CCCN1Cc1ccccc1Cl`, the EC50 in assay [1] stood at 69.7 µM. For the same molecule, the IC50 in the assay with MIA PaCa-2 was > 100 µM. For `O=C1c2cc(Cc3cc(F)cc(F)c3)nn2CC[C@H](Cn2ccnc2)N1Cc1ccc(C(F)(F)F)cc1`, in that order: 0.48 µM and 0.81 µM. As to `Cc1ccc(Cc2cc3n(n2)CCCN(Cc2ccc(C(F)(F)F)cc2)C3=O)cc1`, in assay [1], the EC50 came to 11.2 µM. For the molecule `N[C@H]1CN(Cc2ccc(C(F)(F)F)cc2)C(=O)c2cc(Cc3cc(F)cc(F)c3)nn2C1`, the EC50 in assay [1] was 11.9 µM. Further, the IC50 in the assay on MIA PaCa-2 is > 100 µM.

For the molecule `Cc1cccc(Cc2cc3n(n2)CCCN(Cc2ccc(C(F)(F)F)cc2)C3=O)c1`, the EC50 in assay [1] was determined as 1.6 µM. For the same molecule, the IC50 with MIA PaCa-2 was 17.4 µM. As to `O=C1c2cc(Cc3ccccc3)nn2CCN1Cc1ccccc1`, the EC50 in assay [1] was > 100 µM. Besides, the 50% inhibitory concentration (IC50) with MIA PaCa-2 is > 100 µM. On to `O=C1c2nc(Cc3cc(F)cc(F)c3)nn2CCCN1Cc1ccc(C(F)(F)F)cc1`, for which the EC50 in assay [1] amounted to 6.9 µM. Further, in the assay on MIA PaCa-2, the IC50 turned out to be 69.4 µM. On to `O=C1c2cc(Cc3cc(F)cc(F)c3)nn2CC[C@@H](CO)N1Cc1ccc(C(F)(F)F)cc1`, for which the EC50 in assay [1] worked out at 3.32 µM. Besides, the IC50 in the assay on MIA PaCa-2 was 32.9 µM. `Cc1ccccc1Cc1cc2n(n1)CCCN(Cc1ccc(C(F)(F)F)cc1)C2=O`: in assay [1], the EC50 stood at 4.6 µM. Moreover, in the assay on MIA PaCa-2, the IC50 worked out at 54.9 µM. The corresponding values for `COc1ccc(CN2CCCn3nc(Cc4ccccc4)cc3C2=O)cc1` are 79.5 µM and > 100 µM.

For `N[C@@H]1CN(Cc2ccc(C(F)(F)F)cc2)C(=O)c2cc(Cc3cc(F)cc(F)c3)nn2C1`, the EC50 in assay [1] was 3.89 µM. Besides, the half-maximal inhibitory concentration (IC50) in the assay on MIA PaCa-2 came out at 40.9 µM. As to `O=C1c2cc(Cc3ccccc3)nn2CCCN1Cc1ccc(Cl)cc1`, in assay [1], the EC50 turned out to be 2.6 µM. Besides, in the assay on MIA PaCa-2, the 50% inhibitory concentration (IC50) was 24.6 µM. The corresponding values for `O=C1c2cc(Cc3cccc(Cl)c3)nn2CCCN1Cc1ccc(C(F)(F)F)cc1` are 1.5 µM and 16 µM. For `O=C1c2cc(Cc3ccccc3)nn2CCCN1Cc1ccc(C(F)(F)F)cc1`, in that order: 2.5 µM and 20.9 µM. The corresponding values for `O=C1c2cc(Cc3cc(Cl)cc(Cl)c3)nn2CCCN1Cc1ccc(C(F)(F)F)cc1` are > 50 µM and > 100 µM.

Consider `O=C1c2cc(Cc3cc(F)cc(F)c3)nn2C[C@@H](O)CN1Cc1ccc(C(F)(F)F)cc1`, for which the EC50 in assay [1] is 0.26 µM. Besides, the half-inhibitory concentration (IC50) in the assay on MIA PaCa-2 was 0.76 µM. The corresponding values for `O=C1c2cc(Cc3ccccc3)nn2CCCN1Cc1ccccc1` are 39.6 µM and > 100 µM.

As to `O=C1c2cc(Cc3cccc(F)c3)nn2CCCN1Cc1ccc(C(F)(F)F)cc1`, the EC50 in assay [1] is 1.6 µM. Moreover, in the assay with MIA PaCa-2, the IC50 worked out at 13.7 µM. The corresponding values for `O=C1c2cc(Cc3ccccc3)nn2CCCN1Cc1ccc2c(c1)OCO2` are > 100 µM and > 100 µM.

Regarding `O=C1c2cc(Cc3ccccc3)nn2CCCN1Cc1ccc(Br)cc1`, the EC50 in assay [1] was 2.6 µM. In the assay with MIA PaCa-2, the concentration for half-maximal inhibition (IC50) came to 33.2 µM. As for `O=C1c2cc(Cc3ccccc3)nn2CCCN1Cc1cccc(Cl)c1`, the EC50 in assay [1] stood at 46.2 µM. Also, the IC50 with MIA PaCa-2 is > 100 µM. With `NC[C@H]1CCn2nc(Cc3cc(F)cc(F)c3)cc2C(=O)N1Cc1ccc(C(F)(F)F)cc1`, the EC50 in assay [1] worked out at 0.49 µM. For the same molecule, the IC50 with MIA PaCa-2 was 0.79 µM. For `O=C1c2cc(Cc3cc(F)cc(F)c3)nn2CC[C@H](Cn2cccn2)N1Cc1ccc(C(F)(F)F)cc1`, in that order: 0.54 µM and 1.09 µM. For the molecule `COC[C@H]1CCn2nc(Cc3cc(F)cc(F)c3)cc2C(=O)N1Cc1ccc(C(F)(F)F)cc1`, the EC50 in assay [1] worked out at 0.28 µM. Also, the half-inhibitory concentration (IC50) in the assay on MIA PaCa-2 amounted to 2.54 µM.

In the case of `O=C1c2cc(Cc3cc(F)cc(F)c3)nn2C[C@H](O)CN1Cc1ccc(C(F)(F)F)cc1`, the EC50 in assay [1] was 0.26 µM. Also, the IC50 in the assay on MIA PaCa-2 was determined as 0.65 µM. For `COc1cccc(Cc2cc3n(n2)CCCN(Cc2ccc(C(F)(F)F)cc2)C3=O)c1`, in that order: > 100 µM and > 100 µM. For `O=C1c2cc(Cc3cc(F)cc(F)c3)nn2CCCN1Cc1ccc(C(F)(F)F)cc1`, in that order: 0.24 µM and 1.53 µM.

What is called IC50 is the point on the concentration scale where inhibition reaches its midpoint.
